Assay results: patent publication US20210128730A1, “METHODS FOR TREATING TUMORS” (NH THERAGUIX, priority 2017, published 2021)
Residues, ends and D or L forms follow the SMILES beside them. *: point of attachment. Cbz = O=C(OCc1ccccc1)*; CH2F = FC*

Assays:
Assay type in all cases: cell-based, human
[1] = tested on: p21; experiment: p21 expression by fluorescence microscopy and immunoblot; settings: HCT116 treated with XR alone or GdBN+XR
Procedure: (§1) HCT116 cells were seeded in 6-well plates and incubated at 37° C. during 1 hour with indicated concentrations of GdBN. Then, cells were irradiated with X-ray irradiator (1 Gy/min, 200 keV, 15 mA, 2 mm copper thickness, X-RAD 320, Precision X-Ray) or with gamma-ray irradiator (IBL-637, Cs^137, 1 Gy/min, gamma CIS-BioInternational, IBA, Saclay, France). Cells were harvested at indicated time points after irradiation for subsequent experiments. Cellular cannibalism was determined as previously described^13. […] Cells are then co-cultured for the indicated time, in presence of the pharmacological inhibitor of ROCK, Y27632 (30 μM, TOCRIS) or the pan-caspase inhibitor, zVAD-fmk (100 μM, Calbiochem). […] Cells were counterstained with Hoechst 33342 (Invitrogen) and analyzed by fluorescent confocal microscopy on a Zeiss LSM510 or by fluorescent microscopy on a LEICA DMi8 using a 63× objective. […] Cytofluorometric determinations were carried out on Guava EasyCyte (Millipore EMD) and data were analyzed by means with Incyte software (Millipore). Cell cycle distributions were assessed with 10 μg/ml of Hoechst 33342 (Invitrogen), as previously described^14. Cell fluorescence was quantified using LSR II™ flow cytometer (Becton-Dickinson). Fluorescence histograms were analyzed with Kaluza software version 1.5. […]

[2] = tested on: HCT116 cells; experiment: Engulfed (target) cell degradation: chromatin condensation and nuclear fragmentation by fluorescence microscopy; settings: 100 μM Z-VAD-fmk; XR or GdBN+XR
Procedure: Cellular cannibalism was determined as previously described^13. Briefly, treated cells were stained with 10 μM of 5-(and-6)-(((4-Chloromethyl)Benzoyl)Amino)Tetramethylrhodamine (Cell Tracker Orange CMTMR, Invitrogen) and untreated cells were stained with 10 μM of 5-chloromethylfluorescein diacetate (Cell tracker Green CMFDA, Invitrogen). Cells are then co-cultured for the indicated time, in presence of the pharmacological inhibitor of ROCK, Y27632 (30 μM, TOCRIS) or the pan-caspase inhibitor, zVAD-fmk (100 μM, Calbiochem). […] Cells were counterstained with Hoechst 33342 (Invitrogen) and analyzed by fluorescent confocal microscopy on a Zeiss LSM510 or by fluorescent microscopy on a LEICA DMi8 using a 63× objective. […] Cytofluorometric determinations were carried out on Guava EasyCyte (Millipore EMD) and data were analyzed by means with Incyte software (Millipore). Cell cycle distributions were assessed with 10 μg/ml of Hoechst 33342 (Invitrogen), as previously described^14. Cell fluorescence was quantified using LSR II™ flow cytometer (Becton-Dickinson). Fluorescence histograms were analyzed with Kaluza software version 1.5. […]

[3] = tested on: HCT116 cells; experiment: Cellular cannibalism (cell engulfment) in CMTMR/CMFDA co-culture, confocal microscopy
Procedure: as §1

[4] = tested on: ROCK1; experiment: ROCK1 activation by immunoblot of MLC2 serine 19 phosphorylation (MLC2S19*); settings: 30 μM Y27632, 24 hours; XR- or GdBN+XR-treated HCT116
Procedure: Total cell lysates were prepared in lysis buffer (0,1% NP40 ; 200 mM HEPES ; 100 mM KCl; 1 mM EDTA; 1% Glycerol final concentration) supplemented with proteases and phosphatases inhibitors cocktail (EDTA-free inhibitors, Roche-diagnostics, Meylan, France). Protein extracts were quantified using the Bradford assay (Bio-Rad Laboratories, Hercules, Calif., USA). Protein extracts (20-40 μg) were run onto 4-12% NuPAGE Bis-tris gel (Invitrogen) and transferred onto nitrocellulose membrane at 4° C.

Compound: O=C(O)c1ccc(-c2c3nc(c(-c4ccc(C(=O)O)cc4)c4ccc([n-]4)c(-c4ccc(C(=O)O)cc4)c4nc(c(-c5ccc(C(=O)O)cc5)c5ccc2[n-]5)C=C4)C=C3)cc1.[Mn+3] [MnTBAP, Manganese (III)-tetrakis(4-benzoic acid) porphyrin]
- effect on cellular senescence (p21 expression, immunoblot) ([1]; 10 μM MnTBAP): reduced the cellular senescence

Compound: COC(=O)C[C@H](NC(=O)[C@H](C)NC(=O)[C@@H](NC(=O)OCc1ccccc1)C(C)C)C(=O)CF [Z-VAD-fmk, benzyloxycarboxyl-Val-Ala-Asp (OMe) fluoromethylketone] (Cbz-Val-Ala-Asp(OMe)-CH2F)
- effect on target cell degradation [2]: failed to repress target cell degradation
- effect on cellular engulfment ([3]; 100 μM Z-VAD-fmk, after XR or GdBN+XR, 24 h culture): not inhibited

Compound: CC(=O)N[C@@H](CS)C(=O)O [NAC, N-acetylcysteine]
- effect on cellular senescence (p21 expression, immunoblot) ([1]; 100 μM NAC): reduced the cellular senescence

Compound: C[C@@H](N)[C@H]1CC[C@H](C(=O)Nc2ccncc2)CC1 [Y27632]
- inhibition of ROCK1 (MLC2S19* immunoblot) [4]: inhibition of ROCK1
- effect on cellular cannibalism ([3]; 30 μM Y27632, after 6 Gy alone and after 6 Gy with 1.2 mM GdBN, 24 hours co-culture): inhibited the cellular cannibalism
